Measured values taken from patent publication US8153556B2, “Synergistic herbicidal compositions containing benfluralin” (Dow AgroSciences LLC, priority 2009, dated 2012).

Legend:
Assay in all cases: Pre-emergence field weed control in winter wheat (visual rating)
Assay type in all cases: in vivo
[1] = tested on: ALOMY = Alopecurus agrestis L. (blackgrass)
Experimental: (§1) Soft winter wheat was planted using normal cultural practices in France and Germany in October under normal environmental conditions that allowed rapid germination and growth of wheat and weeds. Fields were prepared as per normal cultural practices, by applying appropriate fertilizers for normal winter wheat growth and yield, working and leveling the ground, and planting at normal time of year using 150 to 170 kg/ha seed with mechanical planters to maximize emergence, growth and yield. Weed infestations varied from 280 to 500 plants per square meter (plants/m^2).
(§2) Treatments consisted of benfluralin applied alone, as well as diflufenican, flufenacet and prosulfocarb applied alone, and in combination with benfluralin, to measure herbicidal weed control and any synergistic interactions. These treatments were applied using backpack sprayers applying spray volumes of 200-250 liters per hectare (L/ha) at a spray pressure of 230 KPA to plots 2.5 meters (m)×8 m, randomized 4 times per treatment. All treatments were applied pre-emergence to the soil, after planting the winter wheat. The pre-emergence treatments were activated with normal rainfall. Treatments were rated on a 0-100% scale, with 0%=no control and 100%=complete control.
(§3) Colby's equation was used to determine the herbicidal effects expected from the mixtures (Colby, S. R. Weeds 1967, 15, 20-22. Calculation of the synergistic and antagonistic response of herbicide combinations).
(§4) The following equation was used to calculate the expected activity of mixtures containing two active ingredients, A and B: Expected=A+B−(A×B/100)
(§5) A=observed efficacy of active ingredient A at the same concentration as used in the mixture.
(§6) B=observed efficacy of active ingredient B at the same concentration as used in the mixture.
(§7) The herbicide tankmix combinations tested, application rates and ratios employed, plant species tested, and results are given in Tables 1 to 6.

[2] = tested on: VERHE = Veronica hederifolia L. (ivyleaf speedwell); settings: Test 2, 150 days after application, benfluralin 1,200 g ai/ha, flufenacet 240 g ai/ha
Experimental: as §1, §2, §3, §4, §5, §6, §7

[3] = tested on: GERRT = Geranium rotundifolium L. (round-leaved Cranesbill); settings: benfluralin 1,000 g ai/ha
Experimental: as §1, §2, §3, §4, §5, §6, §7

[4] = tested on: GALAP = Galium aparine L. (cleavers); settings: benfluralin 1,000 g ai/ha, prosulfocarb 3,000 g ai/ha
Experimental: as §1, §2, §3, §4, §5, §6, §7

[5] = Test 1, 13 days after application, benfluralin 1,200 g ai/ha, flufenacet 240 g ai/ha
[6] = Test 1, 236 days after application, benfluralin 1,200 g ai/ha, flufenacet 240 g ai/ha
[7] = Test 2, 189 days after application, benfluralin 1,200 g ai/ha, flufenacet 240 g ai/ha
[8] = Test 1, 27 days after application, diflufenican 100 g ai/ha
[9] = Test 1, 27 days after application, prosulfocarb 3,000 g ai/ha
[10] = Test 1, 174 days after application, prosulfocarb 3,000 g ai/ha
[11] = Test 1, 236 days after application, diflufenican 100 g ai/ha
[12] = Test 1, 236 days after application, prosulfocarb 3,000 g ai/ha
[13] = Test 1, 27 days after application
[14] = Test 1, 174 days after application
[15] = Test 1, 236 days after application
[16] = Test 1, 27 days after application, benfluralin 1,000 g ai/ha, diflufenican 100 g ai/ha
[17] = Test 1, 27 days after application, benfluralin 1,000 g ai/ha, prosulfocarb 3,000 g ai/ha
[18] = Test 1, 174 days after application, benfluralin 1,000 g ai/ha, diflufenican 100 g ai/ha
[19] = Test 1, 174 days after application, benfluralin 1,000 g ai/ha, prosulfocarb 3,000 g ai/ha
[20] = Test 1, 236 days after application, benfluralin 1,000 g ai/ha, diflufenican 100 g ai/ha
[21] = Test 1, 236 days after application, benfluralin 1,000 g ai/ha, prosulfocarb 3,000 g ai/ha
[22] = Test 2, 169 days after application, benfluralin 1,000 g ai/ha, diflufenican 100 g ai/ha
[23] = Test 2, 189 days after application, benfluralin 1,000 g ai/ha, prosulfocarb 3,000 g ai/ha
[24] = Test 2, 199 days after application, benfluralin 1,000 g ai/ha, diflufenican 100 g ai/ha

Compound	% Visual Weed Control ALOMY Obs [1, 5] [%]	% Visual Weed Control ALOMY Obs [1, 6] [%]	% Visual Weed Control ALOMY Obs [1, 7] [%]	% Visual Weed Control VERHE Obs [2] [%]	% Visual Weed Control GERRT Obs [3, 8] [%]	% Visual Weed Control GERRT Obs [3, 9] [%]	% Visual Weed Control GERRT Obs [3, 10] [%]	% Visual Weed Control GERRT Obs [3, 11] [%]	% Visual Weed Control GERRT Obs [3, 12] [%]	% Visual Weed Control GALAP Obs [4, 13] [%]	% Visual Weed Control GALAP Obs [4, 14] [%]	% Visual Weed Control GALAP Obs [4, 15] [%]	% Visual Weed Control ALOMY Obs [1, 16] [%]	% Visual Weed Control ALOMY Obs [1, 17] [%]	% Visual Weed Control ALOMY Obs [1, 18] [%]	% Visual Weed Control ALOMY Obs [1, 19] [%]	% Visual Weed Control ALOMY Obs [1, 20] [%]	% Visual Weed Control ALOMY Obs [1, 21] [%]	% Visual Weed Control ALOMY Obs [1, 22] [%]	% Visual Weed Control ALOMY Obs [1, 23] [%]	other results
CC(C)N(C(=O)COc1nnc(C(F)(F)F)s1)c1ccc(F)cc1 [Flufenacet, N-(4-fluorophenyl)-N-(1-methylethyl)-2-[[5-(trifluoromethyl)-1,3,4-thiadiazol-2-yl]oxy]acetamide]	26	80	82	0	–	–	–	–	–	–	–	–	–	–	–	–	–	–	–	–	–
CCCCN(CC)c1c([N+](=O)[O-])cc(C(F)(F)F)cc1[N+](=O)[O-] [Benfluralin, N-butyl-N-ethyl-2,6-dinitro-4-(trifluoromethyl)benzenamine]	7	29	0	43	6	6	7	7	7	7	8	7	17	17	20	20	23	23	0	0	% Visual Weed Control ALOMY Obs [1, 24]: 0%
CCCN(CCC)C(=O)SCc1ccccc1 [Prosulfocarb, S-(phenylmethyl) dipropylcarbamothioate]	–	–	–	–	–	21	25	–	27	37	39	42	–	30	–	33	–	35	–	30	–
O=C(Nc1ccc(F)cc1F)c1cccnc1Oc1cccc(C(F)(F)F)c1 [Diflufenican, N-(2,4-difluorophenyl)-2-[3-(trifluoromethyl)phenoxy]-3-pyridinecarboxamide]	–	–	–	–	72	–	–	63	–	–	–	–	19	–	22	–	23	–	0	–	% Visual Weed Control ALOMY Obs [1, 24]: 7%
